Results reported in patent US20020183384A1, “Methods of treating nuclear factor-kappa B mediated diseases and disorders” (priority 2001, published 2002).

system: NF-κB mediated transcription; assay: NF-κB driven β-lactamase reporter assay in ECV-304 NF-κB.βlaZ cells (AURORA CCF2 fluorescence); assay type: cell-based, human; conditions: 10 μM compound; ECV-304 NF-κB.βlaZ cells stimulated with 10 ng/mL TNF-α or 100 pg/mL IL-1β, 6 hours at 37° C.; inhibition of maximum blue/green ratio
In short: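 Blue/green (460/530 nm, excitation 395 nm) CCF2 emission ratio quantified NF-κB-driven β-lactamase expression in the stably transfected endothelial-like ECV-304 clone 1E8.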

Q: With `COC(=O)C(C)(Cc1c[nH]c2ccccc12)NS(=O)(=O)NC(=O)OC1C2CC3CC(C2)CC1C3` (racemic) [Example 101, DL-Tryptophan, α-methyl-N-[[[(tricyclo[3.3.1.1^3,7]dec-2-yloxy)-carbonyl]amino]sulfonyl]-, methyl ester] as the compound, how does the “Percent Inhibition at 10 μM” value read?
A: <10%

Q: Which “Percent Inhibition at 10 μM” value does the source give for `CC(C)c1cccc(C(C)C)c1OS(=O)(=O)NC(=O)OCC(COC(=O)NS(=O)(=O)Oc1c(C(C)C)cccc1C(C)C)OC(=O)NS(=O)(=O)Oc1c(C(C)C)cccc1C(C)C` [Example 112, Carbamic acid, [[2,6-bis(1-methylethyl)phenoxy]sulfonyl]-, 1,2,3-propanetriyl ester] here?
A: <10%

same assay, conditions: Homo sapiens, ECV-304, 6 h, 10 μM compound; ECV-304 NF-κB.βlaZ cells stimulated with 10 ng/mL TNF-α or 100 pg/mL IL-1β, 6 hours at 37° C.; inhibition of maximum blue/green ratio; read-out: Percent Inhibition at 10 μM

Q: `C/C(=C\c1ccccc1)C(=O)NS(=O)(=O)Oc1c(C(C)C)cccc1C(C)C` [Example 236, ((E)-2-Methyl-3-phenyl-acryloyl)-sulfamic acid 2,6-diisopropyl-phenyl ester] was tested. Which inhibition at 10 µM did it give?
A: 79.4%

Q: How did the inhibition at 10 µM turn out when `CC(C)c1cccc(C(C)C)c1OS(=O)(=O)NC(=O)Sc1c(C(C)C)cccc1C(C)C` [Example 139, Carbamothioic acid, [[2,6-bis(1-methylethyl)phenoxy]sulfonyl]-, S-[2,6-bis(1-methylethyl)phenyl] ester] was run?
A: 65.5%

Q: How did the inhibition at 10 µM turn out when `CCCCCCCCCCOS(=O)(=O)NC(=O)Nc1c(C(C)C)cccc1C(C)C` [Example 90, Sulfamic acid, [[[2,6-bis(1-methylethyl)phenyl]amino]carbonyl]-, decyl ester] was run?
A: 13.6%

Q: `CC(C)c1cccc(C(C)C)c1NC(=O)NS(=O)(=O)N(Cc1ccccc1)C(C)C` [Example 22, N-[2,6-bis(1-methylethyl)phenyl]-N′-[[(1-methylethyl)-(phenylmethyl)amino]-sulfonyl]-urea] was tested. Which inhibition at 10 µM did it give?
A: 20.2%

Q: With `CCCCCCCCCCCCOC(=O)NS(=O)(=O)Nc1c(OC)cc(OC)cc1OC` [Example 79, Carbamic acid, [[(2,4,6-trimethoxyphenyl)amino]sulfonyl]-, dodecyl ester] as the compound, how does the inhibition at 10 µM read?
A: < 10%

Q: How did the inhibition at 10 µM turn out when `CC(C)c1cccc(C(C)C)c1OS(=O)(=O)NC(=O)NC(c1ccccc1)(c1ccccc1)c1ccccc1` [Example 223, Sulfamic acid, [[(triphenylmethyl)amino]carbonyl]-, 2,6-bis(1-methylethyl)phenyl ester] was run?
A: 68.2%

Q: How did the inhibition at 10 µM turn out when `CC(C)c1cc(C(C)C)c(CC(=O)NS(=O)(=O)Oc2c(C(C)C)cccc2C(C)C)c(C(C)C)c1` [Example 120, Sulfamic acid, [[2,4,6-tris(1-methylethyl)phenyl]acetyl]-, 2,6-bis(1-methylethyl)phenyl ester] was run?
A: 55%

Q: Which inhibition at 10 µM does the source give for `CC(C)c1cccc(C(C)C)c1OS(=O)(=O)NC(=O)C1c2ccccc2-c2ccccc21` [Example 174, (9H-Fluorene-9-carbonyl)-sulfamic acid 2,6-diisopropyl-phenyl ester] here?
A: 32.2%

same assay, conditions: Homo sapiens; 10 μM compound; ECV-304 NF-κB.βlaZ cells stimulated with 10 ng/mL TNF-α or 100 pg/mL IL-1β, 6 hours at 37° C.; inhibition of maximum blue/green ratio; read-out: Percent Inhibition at 10 μM

Q: `CC(C)c1cccc(C(C)C)c1OC(=O)NS(=O)(=O)N1CCCC1` [Example 66, Carbamic acid, (1-pyrrolidinylsulfonyl)-, 2,6-bis(1-methylethyl)phenyl ester] was tested. Which inhibition at 10 µM did it give?
A: < 10%

Q: For `CC(C)c1cc(C(C)C)c(OS(=O)(=O)NC(=O)Oc2c(C(C)C)cccc2C(C)C)c(C(C)C)c1` [Example 125, Carbamic acid, [[2,4,6-tris(1-methylethyl)phenoxy]sulfonyl]-, 2,6-bis(1-methylethyl)phenyl ester], which inhibition at 10 µM is on record?
A: 11%

Q: Which inhibition at 10 µM does the source give for `COC(=O)NS(=O)(=O)Oc1c(C(C)C)cccc1C(C)C` [Example 56, Carbamic acid, [[2,6-bis(1-methylethyl)phenoxy]sulfonyl]-, methyl ester] here?
A: < 10%

Q: Which inhibition at 10 µM does the source give for `Cc1cc(C)c(C)c(OC(=O)NS(=O)(=O)Oc2c(C(C)C)cccc2C(C)C)c1C` [Example 166, Carbamic acid, [[2,6-bis(1-methylethyl)phenoxy]sulfonyl]-, 2,3,5,6-tetramethylphenyl ester] here?
A: < 10%

Q: Which inhibition at 10 µM does the source give for `CC(C)c1cccc(C(C)C)c1OC(=O)NS(=O)(=O)NC(=O)Oc1c(C(C)C)cccc1C(C)C` [Example 141, Carbamic acid, sulfonylbis-, bis[2,6-bis(1-methylethyl)phenyl] ester] here?
A: < 10%
